Measured values from patent US10906938B2, “Cell epitopes and combination of cell epitopes for use in the immunotherapy of myeloma and other cancers” (Immatics Biotechnologies GmbH, priority 2015, dated 2021).

Legend:
MM.1S cells = assay: HLA class I ligand presentation upon carfilzomib treatment on MM.1S cells (LC-MS/MS); format: cell-based, human; parameters: key to modulation upon carfilzomib-treatment 24 #1 / modulation upon carfilzomib-treatment 24 #2 / modulation upon carfilzomib-treatment 24 #3 / modulation upon carfilzomib-treatment 48 #1 / modulation upon carfilzomib-treatment 48 #2 / modulation upon carfilzomib-treatment 48 #3: −1: significantly down-modulated; 0: not signifcant/not detected; 1: significantly up-modulated; details: for modulation upon carfilzomib-treatment 24 #1 / modulation upon carfilzomib-treatment 24 #2 / modulation upon carfilzomib-treatment 24 #3: 24 h after carfilzomib treatment (100 nM, 1 h); for modulation upon carfilzomib-treatment 24 #1 / modulation upon carfilzomib-treatment 48 #1: biological replicate #1; for modulation upon carfilzomib-treatment 24 #1 / modulation upon carfilzomib-treatment 24 #2 / modulation upon carfilzomib-treatment 24 #3 / modulation upon carfilzomib-treatment 48 #1 / modulation upon carfilzomib-treatment 48 #2 / modulation upon carfilzomib-treatment 48 #3: vs mock-treated controls; for modulation upon carfilzomib-treatment 24 #2 / modulation upon carfilzomib-treatment 48 #2: biological replicate #2; for modulation upon carfilzomib-treatment 24 #3 / modulation upon carfilzomib-treatment 48 #3: biological replicate #3; for modulation upon carfilzomib-treatment 48 #1 / modulation upon carfilzomib-treatment 48 #2 / modulation upon carfilzomib-treatment 48 #3: 48 h after carfilzomib treatment (100 nM, 1 h)
Procedure: HLA class I and II molecules were isolated using standard immunoaffinity purification as described using the pan-HLA class I specific mAb W6/32, the pan-HLA class II specific mAb T039 and the HLA-DR specific mAB L243 (produced in house).
HLA ligand extracts were analyzed in 5 technical replicates as described previously. In brief, peptide samples were separated by nanoflow HPLC (RSLCnano, ThermoFisher) using a 50 μm×25 cm PepMap RSLC column (Thermo Fisher) and a gradient ranging from 2.4 to 32.0% acetonitrile over the course of 90 min. Eluting peptides were analyzed in an online coupled LTQ Orbitrap XL mass spectrometer (Thermo Fisher) using a top 5 CID (collision induced dissociation) fragmentation method.
Data processing was performed as described previously. In brief, the Mascot search engine (Mascot 2.2.04; Matrix Science, London, UK) was implemented to search the human proteome as comprised in the Swiss-Prot database (20,279 reviewed protein sequences, September 2013) without enzymatic restriction. Potential mutated HLA ligands were searched implementing a database containing the human proteome concatenated with proteins containing single amino acid variants (SAVs) listed in the COSMIC database (http://cancer.sanger.ac.uk/cosmic/). Only recurrent SAVs described in 2 or more samples of hematological origin were included. Oxidized methionine was allowed as a dynamic modification. The false discovery rate was estimated using the Percolator algorithm and set to 5%. Peptide lengths were limited to 8-12 amino acids for HLA class I and 12-25 amino acids for HLA class II. Protein inference was disabled, allowing for multiple protein annotations of peptides. HLA annotation was performed using SYFPEITHI [46] or an extended in-house database. Experimental validation of peptide identifications and HLA annotations was performed by mass spectrometric and functional characterization of synthetic peptides for a subset of peptides.
The inventors quantitatively assessed HLA class I ligand presentation during proteasome inhibitor therapy. Observed was a considerable plasticity of the HLA class I ligandome after treatment with carfilzomib with 17.9±1.1% of MM.1S ligands and 11.2±0.7% of U266 ligands (mean of three biological replicates ±s.d.) showing significant modulation (fold-change ≥4, Po0.01 after Benjamini-Hochberg correction) at t24 h compared with mock-treated controls. Briefly, Cultured MCLs (MM.1S and U266) and primary myeloma samples were incubated with carfilzomib (100 nM, Kyprolis®, available, e.g., from Onyx Pharmaceuticals, Inc.) as an example for a proteasome inhibitor for a 1-h period, followed by three washes in PBS (Gibco) and recultured for additional 24 or 48 h. Controls were incubated with vehicle control (glucose 5%) for 1 h, followed by identical washing and incubation for 24 or 48 h. Experiments were conducted in three biological replicates where indicated.

U266 cells = assay: HLA class I ligand presentation upon carfilzomib treatment on U266 cells (LC-MS/MS); format: cell-based, human; parameters: key to modulation upon carfilzomib-treatment 24 #1 / modulation upon carfilzomib-treatment 24 #2 / modulation upon carfilzomib-treatment 24 #3 / modulation upon carfilzomib-treatment 48 #1 / modulation upon carfilzomib-treatment 48 #2 / modulation upon carfilzomib-treatment 48 #3: −1: significantly down-modulated; 0: not signifcant/not detected; 1: significantly up-modulated; details: for modulation upon carfilzomib-treatment 24 #1 / modulation upon carfilzomib-treatment 24 #2 / modulation upon carfilzomib-treatment 24 #3 / modulation upon carfilzomib-treatment 48 #1 / modulation upon carfilzomib-treatment 48 #2 / modulation upon carfilzomib-treatment 48 #3: U266 cells, vs mock-treated controls; for modulation upon carfilzomib-treatment 24 #1 / modulation upon carfilzomib-treatment 24 #2 / modulation upon carfilzomib-treatment 24 #3: 24 h after carfilzomib treatment (100 nM, 1 h); for modulation upon carfilzomib-treatment 24 #1 / modulation upon carfilzomib-treatment 48 #1: biological replicate #1; for modulation upon carfilzomib-treatment 24 #2 / modulation upon carfilzomib-treatment 48 #2: biological replicate #2; for modulation upon carfilzomib-treatment 24 #3 / modulation upon carfilzomib-treatment 48 #3: biological replicate #3; for modulation upon carfilzomib-treatment 48 #1 / modulation upon carfilzomib-treatment 48 #2 / modulation upon carfilzomib-treatment 48 #3: 48 h after carfilzomib treatment (100 nM, 1 h)
Summary of the method: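 MM.1S and U266 myeloma cells were pulsed with 100 nM carfilzomib for 1 h, washed and recultured 24 or 48 h; controls got 5% glucose vehicle. HLA class I ligands were immunopurified with W6/32 and analysed by nanoLC-MS/MS (CID, 5 technical replicates, 5% FDR, 8-12-mers). Modulation versus mock was scored as fold-change ≥4 with Benjamini-Hochberg-corrected significance.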

[1] = carfilzomib 100 nM for 1 h, t24 h vs mock-treated controls, fold-change ≥4, Po0.01 after Benjamini-Hochberg correction, mean of three biological replicates ±s.d.
[2] = MM.1S cells, 24 h after carfilzomib treatment

| Compound | modulation upon carfilzomib-treatment 24 #1 (MM.1S cells; MM.1S cells) | modulation upon carfilzomib-treatment 24 #2 (MM.1S cells; MM.1S cells) | modulation upon carfilzomib-treatment 24 #3 (MM.1S cells; MM.1S cells) | modulation upon carfilzomib-treatment 48 #1 (MM.1S cells; MM.1S cells) | modulation upon carfilzomib-treatment 48 #2 (MM.1S cells; MM.1S cells) | modulation upon carfilzomib-treatment 48 #3 (MM.1S cells; MM.1S cells) | modulation upon carfilzomib-treatment 24 #1 (U266 cells) | modulation upon carfilzomib-treatment 24 #2 (U266 cells) | modulation upon carfilzomib-treatment 24 #3 (U266 cells) | modulation upon carfilzomib-treatment 48 #1 (U266 cells) | modulation upon carfilzomib-treatment 48 #2 (U266 cells) | modulation upon carfilzomib-treatment 48 #3 (U266 cells) | MM.1S ligands showing significant modulation (MM.1S cells; [1]) [%] | U266 ligands showing significant modulation (U266 cells; [1]) [%] | modulation of peptide presentation upon carfilzomib treatment (MM.1S cells; [2]) | biological replicates with significant up-modulation (MM.1S cells; [2]) |
| --- | --- | --- | --- | --- | --- | --- | --- | --- | --- | --- | --- | --- | --- | --- | --- | --- |
| FAYPAIRYL | 0 | 0 | 0 | 0 | 0 | 0 | 0 | 0 | 0 | 1 | 0 | 1 | – | – | – | – |
| RPKAQPTTL | 0 | 0 | 1 | 0 | 0 | 0 | 0 | 0 | 0 | 0 | 0 | 0 | – | – | – | – |
| CC(C)C[C@H](NC(=O)[C@H](CCc1ccccc1)NC(=O)CN1CCOCC1)C(=O)N[C@@H](Cc1ccccc1)C(=O)N[C@@H](CC(C)C)C(=O)[C@@]1(C)CO1 [carfilzomib, reference compound] | – | – | – | – | – | – | – | – | – | – | – | – | 17.9±1.1 | 11.2±0.7 | – | – |
| TPAVGRLEV | 0 | 0 | 0 | 0 | 0 | 0 | 0 | 0 | 0 | 0 | 0 | 0 | – | – | – | – |
| RPQLKGVVL | 0 | 0 | 0 | 0 | 0 | 0 | 0 | 0 | 0 | 0 | 0 | 0 | – | – | – | – |
| EYGHIPSF | 1 | 1 | 0 | 0 | 0 | 0 | – | – | – | – | – | – | – | – | – | – |
| RYSPVLSRF | 0 | 0 | 0 | 0 | 0 | 0 | – | – | – | – | – | – | – | – | – | – |
| VPLTRVSGGAA | 1 | 1 | 1 | 1 | 1 | 1 | – | – | – | – | – | – | – | – | – | – |
| RPHGGKSL | 0 | 0 | 0 | 0 | 0 | 0 | – | – | – | – | – | – | – | – | – | – |
| RYFKGPELL | 0 | 0 | 0 | 0 | 0 | 0 | – | – | – | – | – | – | – | – | – | – |
| TASPLVKSV | 0 | 0 | 0 | 0 | 1 | 0 | – | – | – | – | – | – | – | – | – | – |
| LAFPGEMLL (listed as Homo sapiens) [SEQ ID NO: 107] | – | – | – | – | – | – | – | – | – | – | – | – | – | – | no significant modulation | – |
| SEFDFFERL | 0 | 0 | 0 | 0 | 0 | −1 | – | – | – | – | – | – | – | – | – | – |
| YYLNEIQSF | 0 | 0 | 0 | 0 | 0 | 0 | – | – | – | – | – | – | – | – | – | – |
| EYGHIPSF (listed as Homo sapiens) [SEQ ID NO: 42] | – | – | – | – | – | – | – | – | – | – | – | – | – | – | significant up-modulation | 2/3 |
